Results from patent US20130164386A1, “Targeting the Alpha3 Subnit of Na+-K+-ATPase for the Treatment of Cough with Sulfenamides” (THE JOHNS HOPKINS UNIVERSITY, priority 2010, published 2013).
Read-outs that look alike come from different tables or passages of the source.

Tests used:
[1] = tested on: Na+-K+ ATPase activity of cough receptor terminations; assay: intravital FM2-10 styryl dye labeling of cough receptor terminals in tracheal mucosa; parameters: species or system guinea pig; settings: data not shown
Excerpt: FIGS. 1A-1D show: (A) selective immunohistochemical labeling of cough receptor terminations in the guinea pig tracheal mucosa with antisera to the alpha3 subunit of Na+K+-ATPase; (B) the cough receptor terminals innerating the tracheal mucosa also are brilliantly and selectively labeled intravitally by the styryl dye FM2-10. This staining method depends upon active Na+-K+ ATPase.
Mazzone, S. B, et al., “Selective Expression of a Sodium Pump Isozyme by Cough Receptors and Evidence for Its Essential Role in Regulating Cough,” J. Neurosci., 2009, 29(43):13662-13671. Thus, the cough receptors uniquely express the alpha3 subunit of the sodium pump in their peripheral terminals, and these terminals display high basal sodium pump activity based on FM2-10 fluorescence.
Referring now to FIGS. 1A-1D, it is shown that: (A) selective immunohistochemical labeling of cough receptor terminations in the guinea pig tracheal mucosa with antisera to the alpha3 subunit of Na+K+-ATPase; (B) the cough receptor terminals innerating the tracheal mucosa also are brilliantly and selectively labeled intravitally by the styryl dye FM2-10. Styryl dyes are known to produce fluorescence intensity proportional to Na+-K+-ATPase activity. Consistent with this notion, FM2-10 labeling of the cough receptor terminations is prevented by the sodium pump inhibitor ouabain (not shown). […]

[2] = tested on: citric acid evoked coughing; assay type: in vivo, guinea pig; settings: anesthetized guinea pigs
[3] = tested on: Na+-K+ ATPase activity of cough receptor terminations; settings: Mazzone et al., J. Neurosci. 2009; cited from earlier work
[4] = tested on: citric acid evoked coughing; settings: alpha3-selective concentration; cited from earlier work
cough receptors = settings: in vitro; alpha3-selective concentration; cited from earlier work
[5] = tested on: citric acid evoked coughing; assay: citric acid evoked coughing in conscious (unanesthetized) guinea pigs; assay type: in vivo, guinea pig; settings: 1 mg/mL, nebulized, delivered as an aerosol to the airways, listed as acid-activated omeprazole

Row | SMILES | FM2-10 labeling of the cough receptor terminations [1] | blood pressure ([2]; dose 30 μg/kg lv) | citric acid evoked coughing ([2]; dose 30 μg/kg lv) | heart rate ([2]; dose 30 μg/kg lv) | respiratory pattern at eupnea ([2]; dose 30 μg/kg lv) | FM2-10 labeling of the cough receptors [3] | coughing evoked in vivo [4] | high frequency action potential patterning in cough receptors (cough receptors) | citric acid evoked coughing [5] | citric acid evoked coughing ([2]; topically applied to the tracheal mucosa, 0.1 mM, listed as acid activated omeprazole)
1 | C[C@@H]1O[C@@H](O[C@H]2C[C@@H](O)[C@]3(CO)[C@H]4[C@H](O)C[C@]5(C)[C@@H](C6=CC(=O)OC6)CC[C@]5(O)[C@@H]4CC[C@]3(O)C2)[C@H](O)[C@H](O)[C@H]1O [ouabain] | prevented | no effect | nearly abolished | no effect | no effect | prevented | reduced substantially | reduced substantially | – | –
2 | COc1ccc2[nH]c([S+]([O-])Cc3ncc(C)c(OC)c3C)nc2c1 (stereo not shown) [omeprazole] | – | – | – | – | – | – | – | – | markedly inhibits | nearly abolished
